Reference: ChEMBL document CHEMBL5370592, “Synthesis and Structure-Activity Relationships of a New Class of Oxadiazoles Targeting DprE1 as Antitubercular Agents” (ACS Med Chem Lett, 2023)
In brackets after ≈: the same amount, converted by molar mass.

What was measured:
Format in all cases: functional
[1] = tested on: Mycobacterium tuberculosis; test: Antitubercular activity against ethambutol/D-cycloserine-resistant Mycobacterium tuberculosis NIH_G11R assessed as inhibition of bacterial growth incubated for 2 weeks; conditions: 336 h
[2] = tested on: Mycobacterium tuberculosis; test: Antitubercular activity against ethionamide-resistant Mycobacterium tuberculosis NIH_G145 assessed as inhibition of bacterial growth incubated for 2 weeks; conditions: NIH_G145, 336 h
[3] = tested on: Mycobacterium tuberculosis; test: Antitubercular activity against streptomycin/D-cycloserine-resistant Mycobacterium tuberculosis NIH_G169 assessed as inhibition of bacterial growth incubated for 2 weeks; conditions: NIH_G169, 336 h
[4] = tested on: Mycobacterium tuberculosis; test: Antitubercular activity against isoniazid/ethionamide/D-cycloserine-resistant Mycobacterium tuberculosis NIH_G17R assessed as inhibition of bacterial growth incubated for 2 weeks; conditions: 336 h
[5] = tested on: Mycobacterium tuberculosis; test: Antitubercular activity against isoniazid/ofloxacin/prothionamide-resistant Mycobacterium tuberculosis NIH1B127 assessed as inhibition of bacterial growth incubated for 2 weeks; conditions: NIH1B127, 336 h
[6] = tested on: Mycobacterium tuberculosis; test: Antitubercular activity against isoniazid/rifampicin/streptomycin-resistant Mycobacterium tuberculosis clinical strain 01291696 assessed as inhibition of bacterial growth incubated for 2 weeks; conditions: Mycobacterium tuberculosis, 01291696, 336 h
[7] = tested on: Mycobacterium tuberculosis; test: Antitubercular activity against isoniazid/rifampicin/ethambutol/rifabutin-resistant Mycobacterium tuberculosis K18b01MR assessed as inhibition of bacterial growth incubated for 2 weeks; conditions: 336 h
[8] = tested on: Mycobacterium tuberculosis; test: Antitubercular activity against isoniazid/rifampicin/ethambutol/streptomycin-resistant Mycobacterium tuberculosis K21b00MR assessed as inhibition of bacterial growth incubated for 2 weeks; conditions: 336 h
[9] = tested on: Mycobacterium tuberculosis; test: Antitubercular activity against isoniazid/rifampicin/ethambutol/rifabutin-resistant Mycobacterium tuberculosis K22b00MR assessed as inhibition of bacterial growth incubated for 2 weeks; conditions: 336 h
[10] = tested on: Mycobacterium tuberculosis; test: Antitubercular activity against isoniazid/rifampicin/ethambutol/pyrazinamid/rifabutin/prothionamide-resistant Mycobacterium tuberculosis K25b00MR assessed as inhibition of bacterial growth incubated for 2 weeks; conditions: 336 h
[11] = tested on: Mycobacterium tuberculosis; test: Antitubercular activity against isoniazid/rifampicin/ethambutol/pyrazinamid/rifabutin-resistant Mycobacterium tuberculosis K26b00MR assessed as inhibition of bacterial growth incubated for 2 weeks; conditions: 336 h
[12] = tested on: Mycobacterium tuberculosis; test: Antitubercular activity against isoniazid/rifampicin/streptomycin/para-aminosalicylic acid/ofloxacin-resistant Mycobacterium tuberculosis K29b00MR assessed as inhibition of bacterial growth incubated for 2 weeks; conditions: 336 h
[13] = tested on: Mycobacterium tuberculosis; test: Antitubercular activity against isoniazid/rifampicin/ethambutol/rifabutin-resistant Mycobacterium tuberculosis NIH_G10R assessed as inhibition of bacterial growth incubated for 2 weeks; conditions: 336 h
[14] = tested on: Mycobacterium tuberculosis; test: Antitubercular activity against isoniazid/rifampicin/ethambutol/streptomycin/D-cycloserine/rifabutin-resistant Mycobacterium tuberculosis NIH_G19R assessed as inhibition of bacterial growth incubated for 2 weeks; conditions: 336 h
[15] = tested on: Mycobacterium tuberculosis; test: Antitubercular activity against isoniazid/rifampicin/ethambutol/pyrazinamide/streptomycin/kanamycin-resistant Mycobacterium tuberculosis K20b00MR assessed as inhibition of bacterial growth incubated for 2 weeks; conditions: 336 h
[16] = tested on: Mycobacterium tuberculosis; test: Antitubercular activity against isoniazid/rifampicin/kanamycin/pyrazinamide/capreomycin/amikacin/prothionamide/D-cycloserine-resistant Mycobacterium tuberculosis K32b00MR assessed as inhibition of bacterial growth incubated for 2 weeks; conditions: 336 h
[17] = tested on: Mycobacterium tuberculosis; test: Antitubercular activity against isoniazid/rifampicin/ethambutol/pyrazinamide/streptomycin/kanamycin/para-aminosalicylic acid/prothionamide-resistant Mycobacterium tuberculosis K33b00MR assessed as inhibition of bacterial growth incubated for 2 weeks; conditions: 336 h
[18] = tested on: Mycobacterium tuberculosis; test: Antitubercular activity against isoniazid/rifampicin/ethambutol/para-aminosalicylic acid/kanamycin/ofloxacin/prothionamide-resistant Mycobacterium tuberculosis Kb019 assessed as inhibition of bacterial growth incubated for 2 weeks; conditions: Kb019, 336 h
[19] = tested on: Mycobacterium tuberculosis; test: Antitubercular activity against extensively drug-resistant Mycobacterium tuberculosis 026K111 assessed as inhibition of bacterial growth incubated for 2 weeks; conditions: 026K111, 336 h
[20] = tested on: Mycobacterium tuberculosis; test: Antitubercular activity against extensively drug-resistant Mycobacterium tuberculosis 028K111 assessed as inhibition of bacterial growth incubated for 2 weeks; conditions: 028K111, 336 h
[21] = tested on: Mycobacterium tuberculosis; test: Antitubercular activity against extensively drug-resistant Mycobacterium tuberculosis clinical strain 00202293 assessed as inhibition of bacterial growth incubated for 2 weeks; conditions: Mycobacterium tuberculosis, 00202293, 336 h
[22] = tested on: Mycobacterium tuberculosis; test: Antitubercular activity against extensively drug-resistant Mycobacterium tuberculosis clinical strain X37b00XR assessed as inhibition of bacterial growth incubated for 2 weeks; conditions: 336 h
[23] = tested on: Mycobacterium tuberculosis; test: Antitubercular activity against isoniazid/ethionamide-resistant Mycobacterium tuberculosis NIH1B21 assessed as inhibition of bacterial growth incubated for 2 weeks; conditions: NIH1B21, 336 h
[24] = tested on: Mycobacterium tuberculosis; test: Antitubercular activity against isoniazid/ethambutol/prothionamide/D-cycloserine/ofloxacin/levofloxacin/pyrazinamide-resistant Mycobacterium tuberculosis NIH1B314 assessed as inhibition of bacterial growth incubated for 2 weeks; conditions: NIH1B314, 336 h
[25] = tested on: Mycobacterium tuberculosis; test: Antitubercular activity against isoniazid/prothionamide-resistant Mycobacterium tuberculosis NIHA38 assessed as inhibition of bacterial growth incubated for 2 weeks; conditions: NIHA38, 336 h
[26] = tested on: Mycobacterium tuberculosis; test: Antitubercular activity against isoniazid/prothionamide-resistant Mycobacterium tuberculosis NIHB140 assessed as inhibition of bacterial growth incubated for 2 weeks; conditions: NIHB140, 336 h
[27] = tested on: Mycobacterium tuberculosis; test: Antitubercular activity against rifampicin/isoniazid/streptomycin/prothionamide-resistant Mycobacterium tuberculosis NIHB43 assessed as inhibition of bacterial growth incubated for 2 weeks; conditions: NIHB43, 336 h
[28] = tested on: Mycobacterium tuberculosis; test: Antitubercular activity against isonizaid/rifampicin/ethambutol/rifabutin/D-cycloserine-resistant Mycobacterium tuberculosis NIH_G21R assessed as inhibition of bacterial growth incubated for 2 weeks; conditions: 336 h
[29] = tested on: Mycobacterium tuberculosis; test: Antitubercular activity against isonizaid/rifampicin/ethambutol/rifabutin-resistant Mycobacterium tuberculosis NIH_G22R assessed as inhibition of bacterial growth incubated for 2 weeks; conditions: 336 h
[30] = tested on: Mycobacterium tuberculosis; test: Antitubercular activity against isonizaid/rifampicin/ethambutol/rifabutin-resistant Mycobacterium tuberculosis NIH_G269DR assessed as inhibition of bacterial growth incubated for 2 weeks; conditions: 336 h
[31] = tested on: Mycobacterium tuberculosis; test: Antitubercular activity against isonizaid/rifampicin/streptomycin/ethionamide-resistant Mycobacterium tuberculosis NIH_G79 assessed as inhibition of bacterial growth incubated for 2 weeks; conditions: NIH_G79, 336 h
[32] = tested on: Mycobacterium tuberculosis; test: Antitubercular activity against isonizaid/rifampicin/rifabutin-resistant Mycobacterium tuberculosis NIHA37 assessed as inhibition of bacterial growth incubated for 2 weeks; conditions: NIHA37, 336 h
[33] = tested on: Mycobacterium tuberculosis; test: Antitubercular activity against isonizaid/rifampicin/ethionamide/prothionamide-resistant Mycobacterium tuberculosis NIHA48 assessed as inhibition of bacterial growth incubated for 2 weeks; conditions: NIHA48, 336 h
[34] = tested on: Mycobacterium tuberculosis; test: Antitubercular activity against isoniazid/rifampicin/ethambutol/pyrazinamide/rifabutin/prothionamide-resistant Mycobacterium tuberculosis NIHB302 assessed as inhibition of bacterial growth incubated for 2 weeks; conditions: NIHB302, 336 h
[35] = tested on: Mycobacterium tuberculosis; test: Antitubercular activity against isoniazid/rifampicin/para-aminosalicylic acid/ofloxacin/prothionamide-resistant Mycobacterium tuberculosis NIHB67 assessed as inhibition of bacterial growth incubated for 2 weeks; conditions: NIHB67, 336 h
[36] = tested on: Mycobacterium tuberculosis; test: Antitubercular activity against isoniazid/rifampicin/para-aminosalicylic acid/pyrazinamide/prothionamide/rifabutin-resistant Mycobacterium tuberculosis NIHB68 assessed as inhibition of bacterial growth incubated for 2 weeks; conditions: NIHB68, 336 h
[37] = tested on: Mycobacterium tuberculosis; test: Antitubercular activity against isoniazid/rifampicin/moxifloxacin-resistant Mycobacterium tuberculosis NIH_G367DR assessed as inhibition of bacterial growth incubated for 2 weeks; conditions: 336 h
[38] = tested on: Mycobacterium tuberculosis; test: Antitubercular activity against isoniazid/rifampicin/moxifloxacin-resistant Mycobacterium tuberculosis NIH_G76MR assessed as inhibition of bacterial growth incubated for 2 weeks; conditions: 336 h
[39] = tested on: Mycobacterium tuberculosis; test: Antitubercular activity against isoniazid/rifampicin/pyrazinamide/prothionamide/rifabutin/ofloxacin/moxifloxacin/levofloxacin-resistant Mycobacterium tuberculosis NIHB188 assessed as inhibition of bacterial growth incubated for 2 weeks; conditions: NIHB188, 336 h
[40] = tested on: Mycobacterium tuberculosis; test: Antitubercular activity against isoniazid/rifampicin/ethambutol/pyrazinamide/prothionamide/ofloxacin/levofloxacin/rifabutin-resistant Mycobacterium tuberculosis NIHB270 assessed as inhibition of bacterial growth incubated for 2 weeks; conditions: NIHB270, 336 h
[41] = tested on: Mycobacterium tuberculosis; test: Antitubercular activity against extensively drug-resistant Mycobacterium tuberculosis NIH1B178 assessed as inhibition of bacterial growth incubated for 2 weeks; conditions: NIH1B178, 336 h
[42] = tested on: Mycobacterium tuberculosis; test: Antitubercular activity against extensively drug-resistant Mycobacterium tuberculosis NIH1B250 assessed as inhibition of bacterial growth incubated for 2 weeks; conditions: NIH1B250, 336 h
[43] = tested on: Mycobacterium tuberculosis; test: Antitubercular activity against extensively drug-resistant Mycobacterium tuberculosis NIHB13 assessed as inhibition of bacterial growth incubated for 2 weeks; conditions: NIHB13, 336 h

COc1nc2ccc(Br)cc2cc1[C@@H](c1ccccc1)[C@@](O)(CCN(C)C)c1cccc2ccccc12 [BEDAQUILINE]
MIC [1]: 0.15 µM (≈ 0.0833 µg/mL)
MIC [2]: 0.2 µM (≈ 0.111 µg/mL)
MIC [3]: 0.15 µM (≈ 0.0833 µg/mL)
MIC [4]: 0.1 µM (≈ 0.0556 µg/mL)
MIC [5]: 0.1 µM (≈ 0.0556 µg/mL)
MIC [6]: 0.05 µM (≈ 0.0278 µg/mL)
MIC [7]: 0.04 µM (≈ 0.0222 µg/mL)
MIC [8]: 0.07 µM (≈ 0.0389 µg/mL)
MIC [9]: 0.15 µM (≈ 0.0833 µg/mL)
MIC [10]: 0.1 µM (≈ 0.0556 µg/mL)
MIC [11]: 0.1 µM (≈ 0.0556 µg/mL)
MIC [12]: 0.2 µM (≈ 0.111 µg/mL)
MIC [13]: 0.1 µM (≈ 0.0556 µg/mL)
MIC [14]: 0.1 µM (≈ 0.0556 µg/mL)
MIC [15]: < 0.02 µM
MIC [16]: 0.1 µM (≈ 0.0556 µg/mL)
MIC [17]: 0.07 µM (≈ 0.0389 µg/mL)
MIC [18]: 0.07 µM (≈ 0.0389 µg/mL)
MIC [19]: 0.2 µM (≈ 0.111 µg/mL)
MIC [20]: 0.15 µM (≈ 0.0833 µg/mL)
MIC [21]: 0.02 µM (≈ 0.0111 µg/mL)
MIC [22]: 0.1 µM (≈ 0.0556 µg/mL)
MIC [23]: 0.07 µM (≈ 0.0389 µg/mL)
MIC [24]: < 0.02 µM
MIC [25]: 0.05 µM (≈ 0.0278 µg/mL)
MIC [26]: 0.05 µM (≈ 0.0278 µg/mL)
MIC [27]: 0.05 µM (≈ 0.0278 µg/mL)
MIC [28]: 0.02 µM (≈ 0.0111 µg/mL)
MIC [29]: 0.1 µM (≈ 0.0556 µg/mL)
MIC [30]: 0.1 µM (≈ 0.0556 µg/mL)
MIC [31]: 0.07 µM (≈ 0.0389 µg/mL)
MIC [32]: 0.05 µM (≈ 0.0278 µg/mL)
MIC [33]: 0.1 µM (≈ 0.0556 µg/mL)
MIC [34]: 0.04 µM (≈ 0.0222 µg/mL)
MIC [35]: 0.3 µM (≈ 0.167 µg/mL)
MIC [36]: 0.1 µM (≈ 0.0556 µg/mL)
MIC [37]: < 0.02 µM
MIC [38]: < 0.02 µM
MIC [39]: 0.04 µM (≈ 0.0222 µg/mL)
MIC [40]: 0.07 µM (≈ 0.0389 µg/mL)
MIC [41]: 0.05 µM (≈ 0.0278 µg/mL)
MIC [42]: 0.07 µM (≈ 0.0389 µg/mL)
MIC [43]: 0.05 µM (≈ 0.0278 µg/mL)
